Source: PubChem BioAssay (NCI)
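Grown in 96-well plates, cells were treated for 48 hours with each compound at five concentrations. Insufficient inhibition: endpoint recorded as highest concentration tested. Abbreviation: GI50, concentration required for 50% inhibition of growth. Definition used: TGI = concentration required for complete inhibition of growth.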

Key:
Test in all cases: NCI tumour cell line growth inhibition, 48 h; in the data active = GI50 below about 0.43 µM; inactive = the rest
NCI-H522 lung = system: NCI-H522 lung
COLO 205 colon = system: COLO 205 colon
MALME-3M melanoma = system: MALME-3M melanoma
OVCAR-4 ovarian = system: OVCAR-4 ovarian
RXF 393 renal = system: RXF 393 renal
786-0 renal = system: 786-0 renal
UACC-62 melanoma = system: UACC-62 melanoma
A549 NSCLC = system: A549 NSCLC
MOLT-4 leukemia = system: MOLT-4 leukemia
OVCAR-5 ovarian = system: OVCAR-5 ovarian
U251 CNS = system: U251 CNS
SK-MEL-2 melanoma = system: SK-MEL-2 melanoma
SR leukemia = system: SR leukemia
CAKI-1 renal = system: CAKI-1 renal
UACC-257 melanoma = system: UACC-257 melanoma
HL-60(TB) leukemia = system: HL-60(TB) leukemia
OVCAR-8 ovarian = system: OVCAR-8 ovarian
SK-MEL-28 melanoma = system: SK-MEL-28 melanoma
HOP-62 NSCLC = system: HOP-62 NSCLC
NCI-H226 lung = system: NCI-H226 lung
MDA-MB-435 = system: MDA-MB-435
ACHN renal = system: ACHN renal
LOX IMVI melanoma = system: LOX IMVI melanoma
SF-295 CNS = system: SF-295 CNS
NCI-H460 lung = system: NCI-H460 lung
NCI-H23 lung = system: NCI-H23 lung
RPMI-8226 leukemia = system: RPMI-8226 leukemia
IGROV1 ovarian = system: IGROV1 ovarian
K-562 leukemia = system: K-562 leukemia
HCT-15 colon = system: HCT-15 colon
HS 578T breast = system: HS 578T breast
SN12C renal = system: SN12C renal
MDA-MB-231 breast = system: MDA-MB-231 breast
PC-3 prostate = system: PC-3 prostate
DU-145 prostate = system: DU-145 prostate
BT-549 breast = system: BT-549 breast
TK-10 renal = system: TK-10 renal
EKVX NSCLC = system: EKVX NSCLC
SNB-75 CNS = system: SNB-75 CNS
A498 renal = system: A498 renal
SF-268 CNS = system: SF-268 CNS
KM12 colon = system: KM12 colon
NCI/ADR-RES ovarian = system: NCI/ADR-RES ovarian
SW-620 colon = system: SW-620 colon
OVCAR-3 ovarian = system: OVCAR-3 ovarian
HCC-2998 colon = system: HCC-2998 colon
SK-MEL-5 melanoma = system: SK-MEL-5 melanoma
CCRF-CEM leukemia = system: CCRF-CEM leukemia
HT29 colon = system: HT29 colon
SK-OV-3 ovarian = system: SK-OV-3 ovarian
SF-539 CNS = system: SF-539 CNS
M14 melanoma = system: M14 melanoma
MCF7 breast = system: MCF7 breast
SNB-19 CNS = system: SNB-19 CNS
HCT-116 colon = system: HCT-116 colon
UO-31 renal = system: UO-31 renal

O=C(c1ccco1)c1nc2ccc(C(F)(F)F)cc2[n+]([O-])c1C(F)(F)F
48.3 µM: TGI (OVCAR-4 ovarian)
37.8 µM: TGI (SNB-75 CNS)
99.4 µM: TGI (UACC-257 melanoma)
80 µM: TGI (RXF 393 renal)
77.2 µM: TGI (MALME-3M melanoma)
inactive: GI50 (NCI-H522 lung) > 100 µM | GI50 (COLO 205 colon) 77.8 µM | GI50 (MALME-3M melanoma) 27.9 µM | GI50 (OVCAR-4 ovarian) 10.8 µM | GI50 (RXF 393 renal) 22.2 µM | GI50 (786-0 renal) > 100 µM | GI50 (UACC-62 melanoma) 43.1 µM | GI50 (A549 NSCLC) 33.7 µM | GI50 (MOLT-4 leukemia) > 100 µM | GI50 (OVCAR-5 ovarian) > 100 µM | GI50 (U251 CNS) 52.6 µM | GI50 (SK-MEL-2 melanoma) 87.7 µM | GI50 (SR leukemia) 20.8 µM | GI50 (CAKI-1 renal) 31 µM | GI50 (UACC-257 melanoma) 26.5 µM | GI50 (HL-60(TB) leukemia) 95.2 µM | GI50 (OVCAR-8 ovarian) 50 µM | GI50 (SK-MEL-28 melanoma) 23.5 µM | GI50 (HOP-62 NSCLC) 33.6 µM | GI50 (NCI-H226 lung) 53.9 µM | GI50 (MDA-MB-435) > 100 µM | GI50 (ACHN renal) 54.5 µM | GI50 (LOX IMVI melanoma) > 100 µM | GI50 (SF-295 CNS) 53.2 µM | GI50 (NCI-H460 lung) 44 µM | GI50 (NCI-H23 lung) 46.7 µM | GI50 (RPMI-8226 leukemia) 20.3 µM | GI50 (IGROV1 ovarian) 35.6 µM | GI50 (K-562 leukemia) 31.3 µM | GI50 (HCT-15 colon) > 100 µM | GI50 (HS 578T breast) > 100 µM | GI50 (SN12C renal) > 100 µM | GI50 (MDA-MB-231 breast) 25.4 µM | GI50 (PC-3 prostate) 28.7 µM | GI50 (DU-145 prostate) 42.7 µM | GI50 (BT-549 breast) 39.4 µM | GI50 (TK-10 renal) 28.8 µM | GI50 (EKVX NSCLC) 12.9 µM | GI50 (SNB-75 CNS) 10.6 µM | GI50 (A498 renal) 33.7 µM | GI50 (SF-268 CNS) 34.3 µM | GI50 (KM12 colon) 67.7 µM | GI50 (NCI/ADR-RES ovarian) > 100 µM | GI50 (SW-620 colon) > 100 µM | GI50 (OVCAR-3 ovarian) 98.8 µM | GI50 (HCC-2998 colon) 85.6 µM | GI50 (SK-MEL-5 melanoma) 31.6 µM | GI50 (CCRF-CEM leukemia) > 100 µM | GI50 (HT29 colon) 29.9 µM | GI50 (SK-OV-3 ovarian) 33.4 µM | GI50 (SF-539 CNS) 54 µM | GI50 (M14 melanoma) > 100 µM | GI50 (MCF7 breast) 41.6 µM | GI50 (SNB-19 CNS) 36.4 µM | GI50 (HCT-116 colon) > 100 µM | GI50 (UO-31 renal) > 100 µM
57.4 µM: TGI (SR leukemia)
> 100 µM: TGI (NCI-H522 lung) | TGI (COLO 205 colon) | TGI (786-0 renal) | TGI (UACC-62 melanoma) | TGI (A549 NSCLC) | TGI (MOLT-4 leukemia) | TGI (OVCAR-5 ovarian) | TGI (U251 CNS) | TGI (SK-MEL-2 melanoma) | TGI (CAKI-1 renal) | TGI (HL-60(TB) leukemia) | TGI (OVCAR-8 ovarian) | TGI (SK-MEL-28 melanoma) | TGI (HOP-62 NSCLC) | TGI (NCI-H226 lung) | TGI (MDA-MB-435) | TGI (ACHN renal) | TGI (LOX IMVI melanoma) | TGI (SF-295 CNS) | TGI (NCI-H460 lung) | TGI (NCI-H23 lung) | TGI (IGROV1 ovarian) | TGI (K-562 leukemia) | TGI (HCT-15 colon) | TGI (HS 578T breast) | TGI (SN12C renal) | TGI (MDA-MB-231 breast) | TGI (PC-3 prostate) | TGI (DU-145 prostate) | TGI (BT-549 breast) | TGI (TK-10 renal) | TGI (EKVX NSCLC) | TGI (A498 renal) | TGI (SF-268 CNS) | TGI (KM12 colon) | TGI (NCI/ADR-RES ovarian) | TGI (SW-620 colon) | TGI (OVCAR-3 ovarian) | TGI (HCC-2998 colon) | TGI (SK-MEL-5 melanoma) | TGI (CCRF-CEM leukemia) | TGI (HT29 colon) | TGI (SK-OV-3 ovarian) | TGI (SF-539 CNS) | TGI (M14 melanoma) | TGI (MCF7 breast) | TGI (SNB-19 CNS) | TGI (HCT-116 colon) | TGI (UO-31 renal)
93 µM: TGI (RPMI-8226 leukemia)
